The values below come from paper PMC11094793, “Discovery of LLC0424 as a Potent and Selective in Vivo NSD2 PROTAC Degrader” (Journal of Medicinal Chemistry, 2024).

Read-outs that look alike come from different tables or passages of the source.

Assay [1] has as its target T1, NSD2 (Homo sapiens, UniProt O96028).
T1 sequence (O96028 211-350 limits assumed): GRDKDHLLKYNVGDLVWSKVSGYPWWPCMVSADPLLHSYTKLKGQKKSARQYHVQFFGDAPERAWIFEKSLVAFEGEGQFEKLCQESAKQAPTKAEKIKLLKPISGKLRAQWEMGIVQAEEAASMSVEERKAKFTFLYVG
Briefly: Validation of mechanism of action: pretreatment rescue of LLC0424-mediated NSD2 degradation. Format: cell-based. The settings on record: for effect of pretreatment on NSD2 protein reduction induced by LLC0424: RPMI-8402 cells, 2 μM LLC0424; for effect of pretreatment on LLC0424-mediated NSD2 degradation: RPMI-8402 and SEM cells, pretreated 2 h, then 2 μM LLC0424 for 12 h.

Assay [2] addresses T2, NSD2 (Homo sapiens, UniProt O96028).
T2 sequence (O96028 1-1365): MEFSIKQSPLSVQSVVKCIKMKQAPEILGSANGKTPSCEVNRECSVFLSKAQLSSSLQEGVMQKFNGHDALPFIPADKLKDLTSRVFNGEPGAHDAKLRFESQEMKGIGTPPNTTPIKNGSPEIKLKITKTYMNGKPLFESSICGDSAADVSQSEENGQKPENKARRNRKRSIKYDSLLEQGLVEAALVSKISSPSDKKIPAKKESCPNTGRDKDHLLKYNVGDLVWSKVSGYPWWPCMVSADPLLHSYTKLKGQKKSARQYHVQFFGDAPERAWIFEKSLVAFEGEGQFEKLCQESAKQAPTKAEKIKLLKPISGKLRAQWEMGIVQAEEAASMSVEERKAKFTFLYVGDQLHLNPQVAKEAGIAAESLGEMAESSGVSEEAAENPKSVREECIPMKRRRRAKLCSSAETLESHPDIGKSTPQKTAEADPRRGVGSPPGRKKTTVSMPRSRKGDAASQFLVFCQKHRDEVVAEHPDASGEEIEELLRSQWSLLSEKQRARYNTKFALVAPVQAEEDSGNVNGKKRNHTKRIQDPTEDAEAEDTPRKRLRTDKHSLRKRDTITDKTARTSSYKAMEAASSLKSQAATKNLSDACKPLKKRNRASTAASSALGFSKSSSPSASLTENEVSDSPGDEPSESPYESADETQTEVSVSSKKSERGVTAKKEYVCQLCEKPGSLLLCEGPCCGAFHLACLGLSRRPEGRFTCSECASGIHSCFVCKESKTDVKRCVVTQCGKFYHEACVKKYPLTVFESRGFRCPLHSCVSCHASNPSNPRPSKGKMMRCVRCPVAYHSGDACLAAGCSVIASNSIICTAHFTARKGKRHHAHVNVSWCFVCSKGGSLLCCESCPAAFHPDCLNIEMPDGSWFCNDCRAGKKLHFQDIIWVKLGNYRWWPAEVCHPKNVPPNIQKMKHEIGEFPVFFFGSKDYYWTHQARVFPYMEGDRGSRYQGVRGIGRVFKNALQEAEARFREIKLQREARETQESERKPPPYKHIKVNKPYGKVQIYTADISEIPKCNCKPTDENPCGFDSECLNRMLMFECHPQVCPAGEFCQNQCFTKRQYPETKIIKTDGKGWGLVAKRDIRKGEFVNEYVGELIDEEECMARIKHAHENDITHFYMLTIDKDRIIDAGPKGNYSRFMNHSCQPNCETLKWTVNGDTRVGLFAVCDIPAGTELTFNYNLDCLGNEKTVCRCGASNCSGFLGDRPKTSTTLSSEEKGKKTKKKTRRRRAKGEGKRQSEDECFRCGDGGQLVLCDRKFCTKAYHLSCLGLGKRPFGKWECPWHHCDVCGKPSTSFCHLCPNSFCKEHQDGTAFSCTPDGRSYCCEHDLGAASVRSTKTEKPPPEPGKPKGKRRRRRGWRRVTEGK
Briefly: Compound screening: NSD2 degradation by immunoblotting in VCaP cells. The settings on record: 24 h; for Dmax at 2 µM: VCaP; for % Degradation: 2 μM, VCaP cells, immunoblotting. In general terms: A western blot detects proteins with antibodies after separation by electrophoresis.
Description: After treatment, the cultured cells were collected and rinsed with phosphate-buffered saline (PBS) in room temperature. The cells were treated with RIPA buffers (ThermoFisher Scientific) supplemented with Halt Protease and Phosphatase Inhibitor Cocktail (ThermoFisher Scientific). After sonication and centrifugation, the total amount of protein in the cell lysates was measured by Pierce Bovine Serum Albumin Standard Pre-Diluted Set (ThermoFisher Scientific). […] After incubated with HRP-conjugated secondary antibodies, the membranes were developed with ECL Prime Western Blotting Detection Reagent (cytiva) and imaged on Odyssey Fc Imager (LiCOR Biosciences).
Western blot was then performed as previously described to detect NSD2 degradation.

The target of assay [3] is T3, NSD2 (both long and short isoforms) (Homo sapiens, UniProt O96028).
T3 sequence (O96028 211-350 limits assumed): T1 sequence (O96028 211-350 limits assumed)
Description: NSD2 degradation by immunoblotting in ALL cell lines RPMI-8402 and SEM (NSD2 E1099K). The assay is classed as cell-based. The settings on record: RPMI-8402 and SEM cells; 0.5 and 2 μM for 24 h or 2 μM for 12 and 24 h. The protocol: As previous studies have shown that ALL cell lines with NSD2 gain-of-function mutation are more dependent on NSD2 regarding H3K36me2 level and cell proliferation,[7],[8] we further characterized LLC0424 in ALL cell lines with NSD2 E1099K gain-of-function mutation (RPMI-8402 and SEM). We first treated these cells with LLC0424 with different concentrations for 24 h. […] In addition, we compared the degradation efficiency of LLC0424 with the two previously published NSD2 degraders 6 and 7 at different concentrations and time points.
After treatment, the cultured cells were collected and rinsed with phosphate-buffered saline (PBS) in room temperature. The cells were treated with RIPA buffers (ThermoFisher Scientific) supplemented with Halt Protease and Phosphatase Inhibitor Cocktail (ThermoFisher Scientific). After sonication and centrifugation, the total amount of protein in the cell lysates was measured by Pierce Bovine Serum Albumin Standard Pre-Diluted Set (ThermoFisher Scientific). After mixed with LDS-sample buffer (Invitrogen) supplemented with Sample Reducing Agent (Invitrogen) and heated in 70 °C for 10 min, equal amount of protein was loaded into NuPAGE 4–12%, Bis-Tris Protein Gel (ThermoFisher Scientific) or NuPAGE 3–8%, Tris-Acetate Protein Gel (ThermoFisher Scientific), and blotted with primary antibodies. After incubated with HRP-conjugated secondary antibodies, the membranes were developed with ECL Prime Western Blotting Detection Reagent (cytiva) and imaged on Odyssey Fc Imager (LiCOR Biosciences).

Where [4] appears, read: read-out: 2.0 μM Degradation % (VCaP).

Turning to `CC(C)C[C@H](NC(=O)[C@H](Cc1ccccc1)NC(=O)c1cnccn1)B(O)O` [bortezomib], the “effect of pretreatment on NSD2 protein reduction induced by LLC0424” value in assay [1] is reported as “rescued the NSD2 protein reduction induced by LLC0424”.

`CN(C(=O)c1ccc(NC(=O)c2ccc(CN(C(=O)c3ccc4c(c3)OCC(=O)N4)C3CC3)cc2)cc1)C1CCN(c2ccc3c(c2)C(=O)N(C2CCC(=O)NC2=O)C3=O)CC1` (stereo not shown) [10o, N-Cyclopropyl-N-(4-((4-((1-(2-(2,6-dioxopiperidin-3-yl)-1,3-dioxoisoindolin-5-yl)piperidin-4-yl)(methyl)carbamoyl)phenyl)carbamoyl)benzyl)-3-oxo-3,4-dihydro-2H-benzo[b][1,4]oxazine-7-carboxamide]: the Dmax at 2 µM in assay [2] (setting [4]) and in assay [2] (read-out: % Degradation) was 89% in each case.

Turning to `CC1(NC(=O)c2ccc(NC(=O)c3ccc(CN(C(=O)c4ccc5c(c4)OCC(=O)N5)C4CC4)cc3)cc2)CCN(c2ccc3c(c2)C(=O)N(C2CCC(=O)NC2=O)C3=O)CC1` (stereo not shown) [10p, N-Cyclopropyl-N-(4-((4-((1-(2-(2,6-dioxopiperidin-3-yl)-1,3-dioxoisoindolin-5-yl)-4-methylpiperidin-4-yl)carbamoyl)phenyl)carbamoyl)benzyl)-3-oxo-3,4-dihydro-2H-benzo[b][1,4]oxazine-7-carboxamide], the Dmax at 2 µM in assay [2] (setting [4]) and in assay [2] (read-out: % Degradation) was 30% each time.

For the molecule `NS(=O)(=O)OC[C@@H]1C[C@@H](n2ccc3c(N[C@H]4CCc5ccccc54)ncnc32)C[C@@H]1O` [MLN4924], the “effect of pretreatment on NSD2 protein reduction induced by LLC0424” value in assay [1] was “rescued the NSD2 protein reduction induced by LLC0424”.

Consider `O=C(CNc1cccc2c1C(=O)N(C1CCC(=O)NC1=O)C2=O)NCCCOc1ccc(NC(=O)c2ccc(CN(C(=O)c3ccc4c(c3)OCC(=O)N4)C3CC3)cc2)nc1` (stereo not shown) [compound 6, reference compound], for which the “% Degradation” value in assay [2] was 11%. Besides, in assay [3], the “NSD2 degradation, comparison of degraders” value was “much less active”.

Turning to `O=C1CCC(N2C(=O)c3cccc(NCCCCCCNC(=O)c4ccc(NC(=O)c5ccc(CN(C(=O)c6ccc7c(c6)OCC(=O)N7)C6CC6)cc5)cc4)c3C2=O)C(=O)N1` (stereo not shown) [10c, N-Cyclopropyl-N-(4-((4-((6-((2-(2,6-dioxopiperidin-3-yl)-1,3-dioxoisoindolin-4-yl)amino)hexyl)carbamoyl)phenyl)carbamoyl)benzyl)-3-oxo-3,4-dihydro-2H-benzo[b][1,4]oxazine-7-carboxamide], the Dmax at 2 µM in assay [2] (setting [4]) and in assay [2] (read-out: % Degradation) was 25% throughout.

As to `Cc1ncsc1-c1ccc(CNC(=O)[C@@H]2C[C@@H](O)CN2C(=O)[C@H](C(C)C)N2Cc3ccccc3C2=O)cc1` [VL-285], the “effect of pretreatment on LLC0424-mediated NSD2 degradation” value in assay [1] is “not”.

In the case of `O=C1CCC(N2C(=O)c3ccc(NCCCCCCNC(=O)c4ccc(NC(=O)c5ccc(CN(C(=O)c6ccc7c(c6)OCC(=O)N7)C6CC6)cc5)cc4)cc3C2=O)C(=O)N1` (stereo not shown) [10i, N-Cyclopropyl-N-(4-((4-((6-((2-(2,6-dioxopiperidin-3-yl)-1,3-dioxoisoindolin-5-yl)amino)hexyl)carbamoyl)phenyl)carbamoyl)benzyl)-3-oxo-3,4-dihydro-2H-benzo[b][1,4]oxazine-7-carboxamide], the Dmax at 2 µM in assay [2] (setting [4]) and in assay [2] (read-out: % Degradation) was 83% throughout.

Take `O=C1CCC(N2C(=O)c3ccc(NCCCCCCCCNC(=O)c4ccc(NC(=O)c5ccc(CN(C(=O)c6ccc7c(c6)OCC(=O)N7)C6CC6)cc5)cc4)cc3C2=O)C(=O)N1` (stereo not shown) [10j, N-Cyclopropyl-N-(4-((4-((8-((2-(2,6-dioxopiperidin-3-yl)-1,3-dioxoisoindolin-5-yl)amino)octyl)carbamoyl)phenyl)carbamoyl)benzyl)-3-oxo-3,4-dihydro-2H-benzo[b][1,4]oxazine-7-carboxamide]: the Dmax at 2 µM in assay [2] (setting [4]) and in assay [2] (read-out: % Degradation) was 90% each time.

As for `O=C1CCC(N2C(=O)c3ccc(NC4CCN(C(=O)c5ccc(NC(=O)c6ccc(CN(C(=O)c7ccc8c(c7)OCC(=O)N8)C7CC7)cc6)cc5)CC4)cc3C2=O)C(=O)N1` (stereo not shown) [compound 10k, N-Cyclopropyl-N-(4-((4-(4-((2-(2,6-dioxopiperidin-3-yl)-1,3-dioxoisoindolin-5-yl)amino)piperidine-1-carbonyl)phenyl)carbamoyl)benzyl)-3-oxo-3,4-dihydro-2H-benzo[b][1,4]oxazine-7-carboxamide], the “% Degradation” value in assay [2] is given as “significant potency loss”. Besides, the Dmax at 2 µM in assay [2] (setting [4]) and in assay [2] (read-out: % Degradation) was 48% each time.

For `O=C1CCC(N2C(=O)c3cccc(NCCCCNC(=O)c4ccc(NC(=O)c5ccc(CN(C(=O)c6ccc7c(c6)OCC(=O)N7)C6CC6)cc5)cc4)c3C2=O)C(=O)N1` (stereo not shown) [compound 10b, N-Cyclopropyl-N-(4-((4-((4-((2-(2,6-dioxopiperidin-3-yl)-1,3-dioxoisoindolin-4-yl)amino)butyl)carbamoyl)phenyl)carbamoyl)benzyl)-3-oxo-3,4-dihydro-2H-benzo[b][1,4]oxazine-7-carboxamide], the Dmax at 2 µM in assay [2] (setting [4]) and in assay [2] (read-out: % Degradation) was 25% in each case.

On to `O=C1CCC(N2C(=O)c3ccccc3C2=O)C(=O)N1` (stereo not shown) [thalidomide], for which, in assay [1], the “effect of pretreatment on LLC0424-mediated NSD2 degradation” value is on record as “reversed the LLC0424-mediated NSD2 degradation”.

Turning to `O=C1CCC(N2C(=O)c3ccc(N4CCCC(NC(=O)c5ccc(NC(=O)c6ccc(CN(C(=O)c7ccc8c(c7)OCC(=O)N8)C7CC7)cc6)cc5)C4)cc3C2=O)C(=O)N1` (stereo not shown) [10q, N-Cyclopropyl-N-(4-((4-((1-(2-(2,6-dioxopiperidin-3-yl)-1,3-dioxoisoindolin-5-yl)piperidin-3-yl)carbamoyl)phenyl)carbamoyl)benzyl)-3-oxo-3,4-dihydro-2H-benzo[b][1,4]oxazine-7-carboxamide], the Dmax at 2 µM in assay [2] (setting [4]) and in assay [2] (read-out: % Degradation) was 3% throughout.

With `O=C1CCC(N2C(=O)c3ccc(N4CCN(C(=O)c5ccc(NC(=O)c6ccc(CN(C(=O)c7ccc8c(c7)OCC(=O)N8)C7CC7)cc6)cc5)CC4)cc3C2=O)C(=O)N1` (stereo not shown) [10m, N-Cyclopropyl-N-(4-((4-(4-(2-(2,6-dioxopiperidin-3-yl)-1,3-dioxoisoindolin-5-yl)piperazine-1-carbonyl)phenyl)carbamoyl)benzyl)-3-oxo-3,4-dihydro-2H-benzo[b][1,4]oxazine-7-carboxamide], the Dmax at 2 µM in assay [2] (setting [4]) and in assay [2] (read-out: % Degradation) was 41% throughout.
